According to the NIST ThermoML archive (doi:10.1021/acs.jced.8b00554):

Assay: xn = mol fraction of the nth substance listed
Details: Liquid, Vibrating tube method

CCCCCCCCCC [decane] + CCCO
Details	mass density [kg/m3]
353.15 K, 10010 kPa, x2 = 0.3001	690.11
353.15 K, 10010 kPa, x2 = 0.8711	731.37
353.15 K, 10020 kPa, x2 = 0.1907	688.55
353.15 K, 11000 kPa, x2 = 0.6863	710.38
353.15 K, 11010 kPa, x2 = 0.3001	691.26
353.15 K, 11010 kPa, x2 = 0.4326	694.72
353.15 K, 11020 kPa, x2 = 0.1391	689.4
353.15 K, 11020 kPa, x2 = 0.1907	689.66
353.15 K, 11020 kPa, x2 = 0.8711	732.51
353.15 K, 12010 kPa, x2 = 0.1391	690.47
353.15 K, 12010 kPa, x2 = 0.1907	690.83
353.15 K, 12010 kPa, x2 = 0.4326	695.89
353.15 K, 12010 kPa, x2 = 0.6863	711.53
353.15 K, 12010 kPa, x2 = 0.8711	733.61
353.15 K, 12020 kPa, x2 = 0.3001	692.38
353.15 K, 13000 kPa, x2 = 0.3001	693.53
353.15 K, 13000 kPa, x2 = 0.8711	734.68
353.15 K, 13010 kPa, x2 = 0.1391	691.56
353.15 K, 13020 kPa, x2 = 0.1907	691.91
353.15 K, 13020 kPa, x2 = 0.4326	697.03
353.15 K, 13020 kPa, x2 = 0.6863	712.69
353.15 K, 14010 kPa, x2 = 0.1907	692.99
353.15 K, 14020 kPa, x2 = 0.1391	692.62
353.15 K, 14020 kPa, x2 = 0.3001	694.63
353.15 K, 14020 kPa, x2 = 0.4326	698.13
353.15 K, 14020 kPa, x2 = 0.6863	713.81
353.15 K, 14020 kPa, x2 = 0.8711	735.8
353.15 K, 15010 kPa, x2 = 0.4326	699.22
353.15 K, 15010 kPa, x2 = 0.6863	714.9
353.15 K, 15010 kPa, x2 = 0.8711	736.86
353.15 K, 15020 kPa, x2 = 0.1391	693.66
353.15 K, 15020 kPa, x2 = 0.1907	694.05
353.15 K, 15020 kPa, x2 = 0.3001	695.7
353.15 K, 16010 kPa, x2 = 0.1391	694.64
353.15 K, 16010 kPa, x2 = 0.1907	695.08
353.15 K, 16010 kPa, x2 = 0.4326	700.29
353.15 K, 16010 kPa, x2 = 0.6863	715.98
353.15 K, 16020 kPa, x2 = 0.3001	696.78
353.15 K, 16020 kPa, x2 = 0.8711	737.89
353.15 K, 17000 kPa, x2 = 0.4326	701.32
353.15 K, 17010 kPa, x2 = 0.1907	696.15
353.15 K, 17010 kPa, x2 = 0.3001	697.84
353.15 K, 17010 kPa, x2 = 0.6863	717.03
353.15 K, 17020 kPa, x2 = 0.1391	695.67
353.15 K, 17020 kPa, x2 = 0.8711	738.93
353.15 K, 18010 kPa, x2 = 0.4326	702.35
353.15 K, 18010 kPa, x2 = 0.6863	718.05
353.15 K, 18020 kPa, x2 = 0.1391	696.65
353.15 K, 18020 kPa, x2 = 0.1907	697.1
353.15 K, 18020 kPa, x2 = 0.3001	698.82
353.15 K, 18020 kPa, x2 = 0.8711	739.92
353.15 K, 19000 kPa, x2 = 0.1391	697.56
353.15 K, 19010 kPa, x2 = 0.1907	698.02
353.15 K, 19010 kPa, x2 = 0.3001	699.8
353.15 K, 19020 kPa, x2 = 0.4326	703.33
353.15 K, 19020 kPa, x2 = 0.6863	719.04
353.15 K, 19020 kPa, x2 = 0.8711	740.89
353.15 K, 20000 kPa, x2 = 0.4326	704.33
353.15 K, 20000 kPa, x2 = 0.6863	720.06
353.15 K, 20000 kPa, x2 = 0.8711	741.82
353.15 K, 20010 kPa, x2 = 0.1391	698.43
353.15 K, 20010 kPa, x2 = 0.1907	698.94
353.15 K, 20010 kPa, x2 = 0.3001	700.68
363.15 K, 100 kPa, x2 = 0.1391	664.41
363.15 K, 100 kPa, x2 = 0.1907	663.86
363.15 K, 100 kPa, x2 = 0.3001	664.03
363.15 K, 100 kPa, x2 = 0.4326	666.18
363.15 K, 100 kPa, x2 = 0.6863	680.95
363.15 K, 100 kPa, x2 = 0.8711	705.01
363.15 K, 1000 kPa, x2 = 0.1907	665.28
363.15 K, 1010 kPa, x2 = 0.1391	665.85
363.15 K, 1010 kPa, x2 = 0.3001	666.15
363.15 K, 1010 kPa, x2 = 0.6863	682.3
363.15 K, 1010 kPa, x2 = 0.8711	706.22
363.15 K, 1020 kPa, x2 = 0.4326	667.3
363.15 K, 2000 kPa, x2 = 0.1391	667.06
363.15 K, 2000 kPa, x2 = 0.1907	666.5
363.15 K, 2000 kPa, x2 = 0.6863	683.55
363.15 K, 2000 kPa, x2 = 0.8711	707.37
363.15 K, 2020 kPa, x2 = 0.3001	667.4
363.15 K, 2020 kPa, x2 = 0.4326	668.51
363.15 K, 3000 kPa, x2 = 0.3001	668.59
363.15 K, 3010 kPa, x2 = 0.1391	668.24
363.15 K, 3010 kPa, x2 = 0.4326	669.77
363.15 K, 3010 kPa, x2 = 0.6863	684.83
363.15 K, 3020 kPa, x2 = 0.1907	667.69
363.15 K, 3020 kPa, x2 = 0.8711	708.57
363.15 K, 4010 kPa, x2 = 0.1391	669.44
363.15 K, 4010 kPa, x2 = 0.1907	668.95
363.15 K, 4010 kPa, x2 = 0.3001	669.83
363.15 K, 4010 kPa, x2 = 0.6863	686.13
363.15 K, 4010 kPa, x2 = 0.8711	709.79
363.15 K, 4020 kPa, x2 = 0.4326	671.06
363.15 K, 5000 kPa, x2 = 0.4326	672.31
